This is an account of results in patent US8324258B2, “F1F0-ATPase inhibitors and related methods” (The Regents of the University of Michigan, priority 2007, dated 2012).

Where only a bound is given, the exact number is not on record here.

In one assay the test system is Ramos cells. Nature of the assay: Cytotoxicity (cell death) in Ramos cells. The format is cell-based. As for the experimental part: (§1) The compounds listed in Table 9 were tested for activity against F1F0-ATPase by measuring ATP synthesis and ATP hydrolysis. In addition, the compounds were assessed for cytotoxicity in Ramos cells Inhibition of ATP synthesis and hydrolysis by the F1F0-ATPase and cytotoxicity in Ramos cells was measured as described in K. M. Johnson et al. Chemistry & Biology 2005, 12, 485-496.

Assay [1] concerns the target T1, F1F0-ATPase (Bos taurus, UniProt P13621). Briefly: Inhibition of ATP synthesis by the F1F0-ATPase. The format is biochemical. The following applies: for ATP Synthesis (IC40 μM): IC40: concentration for 40% inhibition. As for the experimental part:
as §1

In assay [2] the target is T1, F1F0-ATPase. Briefly: Inhibition of ATP hydrolysis by the F1F0-ATPase. Format: biochemical. The following applies: for ATP Hydrolysis (IC40 μM): IC40: concentration for 40% inhibition. As for the experimental part: as §1

`CS(=O)(=O)c1cccc(NC(=NC(=O)c2cccc(Cl)c2)NCCc2cnc[nH]2)c1` [III-37, (Z/E)-N-((2-(1H-imidazol-5-yl)ethylamino)(3-(methylsulfonyl)phenylamino)methylene)-3-chlorobenzamide] displayed an EC50 in the assay on Ramos cells (Ramos cells) above 30 µM. Also, the “ATP Synthesis (IC40 μM)” value on F1F0-ATPase [1] was above 20 µM. For the same molecule, the “ATP Hydrolysis (IC40 μM)” value on F1F0-ATPase [2] is above 30 µM.

In the assay with Ramos cells (Ramos cells), `O=C(N=C(NCCc1c[nH]cn1)Nc1ccc(-c2ccccc2)cc1)c1ccc(Cl)cc1` [II-1, (Z/E)-N-((2-(1H-imidazol-4-yl)ethylamino)(biphenyl-4-ylamino)methylene)-4-chlorobenzamide] displayed an EC50 above 30 µM. Besides, at F1F0-ATPase [1], the “ATP Synthesis (IC40 μM)” value is above 10 µM. In addition, the “ATP Hydrolysis (IC40 μM)” value at F1F0-ATPase [2] is above 10 µM.

`O=C(N=C(NCCc1c[nH]cn1)Nc1cccc(-c2ccccc2)c1)c1cccc([N+](=O)[O-])c1` [VI-12, (Z/E)-N-((2-(1H-imidazol-4-yl)ethylamino)(biphenyl-3-ylamino)methylene)-3-nitrobenzamide] returned an EC50 with Ramos cells (Ramos cells) above 10 µM. Besides, at F1F0-ATPase [1], the “ATP Synthesis (IC40 μM)” value was below 10 µM. Also, the “ATP Hydrolysis (IC40 μM)” value on F1F0-ATPase [2] was above 30 µM.

For the molecule `Cc1ccccc1C(=O)N=C(NCCc1c[nH]cn1)Nc1ccccc1-c1ccccc1` [Compound I-3, (E/Z)—N-((2-(1H-imidazol-4-yl)ethylamino)(biphenyl-2-ylamino)methylene)-2-methylbenzamide], the EC50 with Ramos cells (Ramos cells) is above 30 µM. In addition, the “ATP Synthesis (IC40 μM)” value on F1F0-ATPase [1] was above 20 µM. Also, at F1F0-ATPase [2], the “ATP Hydrolysis (IC40 μM)” value was above 30 µM.

Take `O=C(N=C(NCCc1c[nH]cn1)Nc1ccc(-c2ccccc2)cc1)c1cccc(F)c1` [II-8, (Z/E)-N-((2-(1H-imidazol-4-yl)ethylamino)(biphenyl-4-ylamino)methylene)-3-fluorobenzamide]: the EC50 with Ramos cells (Ramos cells) was below 10 µM. The “ATP Synthesis (IC40 μM)” value on F1F0-ATPase [1] is above 10 µM. For the same molecule, at F1F0-ATPase [2], the “ATP Hydrolysis (IC40 μM)” value was above 10 µM.

`O=C(N=C(NCCc1c[nH]cn1)Nc1cccc(-c2ccccc2)c1)c1cccc(C(F)(F)F)c1` [VI-3, (Z/E)-N-((2-(1H-imidazol-4-yl)ethylamino)(biphenyl-3-ylamino)methylene)-3-(trifluoromethyl)benzamide] yielded an EC50 in the assay with Ramos cells (Ramos cells) below 10 µM. Also, on F1F0-ATPase [1], the “ATP Synthesis (IC40 μM)” value is below 10 µM. The “ATP Hydrolysis (IC40 μM)” value at F1F0-ATPase [2] was above 10 µM.

In the assay with Ramos cells (Ramos cells), `O=C(N=C(NCCc1c[nH]cn1)Nc1ccccc1F)c1cccc(Cl)c1` [III-14, (Z/E)-N-((2-(1H-imidazol-4-yl)ethylamino)(2-fluorophenylamino)methylene)-3-chlorobenzamide] yielded an EC50 above 30 µM. For the same molecule, at F1F0-ATPase [1], the “ATP Synthesis (IC40 μM)” value was above 20 µM. In addition, the “ATP Hydrolysis (IC40 μM)” value at F1F0-ATPase [2] was above 30 µM.

`O=C(N=C(NCCc1c[nH]cn1)Nc1ccc(-c2ccccc2)cc1)c1ccc(C(F)(F)F)cc1` [II-5, (Z/E)-N-((2-(1H-imidazol-4-yl)ethylamino)(biphenyl-4-ylamino)methylene)-4-(trifluoromethyl)benzamide] returned an EC50 in the assay with Ramos cells (Ramos cells) below 10 µM. Also, at F1F0-ATPase [1], the “ATP Synthesis (IC40 μM)” value was above 10 µM. The “ATP Hydrolysis (IC40 μM)” value on F1F0-ATPase [2] is above 10 µM.

`O=C(/N=C(/NCCn1ccnc1)Nc1ccc(-c2ccccc2)cc1)c1cccc(Cl)c1` [IV-2, (Z/E)-N-((2-(1H-imidazol-1-yl)ethylamino)(biphenyl-4-ylamino)methylene)-3-chlorobenzamide] showed an EC50 with Ramos cells (Homo sapiens, Ramos) above 10 µM. For the same molecule, the “ATP Synthesis (IC40 μM)” value on F1F0-ATPase [1] is below 10 µM. For the same molecule, the “ATP Hydrolysis (IC40 μM)” value at F1F0-ATPase [2] was above 10 µM.

With `O=C(N=C(NCCc1c[nH]cn1)Nc1cccc(-c2ccccc2)c1)c1cccc(Br)c1` [VI-10, (Z/E)-N-((2-(1H-imidazol-4-yl)ethylamino)(biphenyl-3-ylamino)methylene)-3-bromobenzamide], the EC50 in the assay with Ramos cells (Ramos cells) is below 10 µM. The “ATP Synthesis (IC40 μM)” value on F1F0-ATPase [1] was below 10 µM. Further, the “ATP Hydrolysis (IC40 μM)” value on F1F0-ATPase [2] is above 10 µM.

The molecule `O=C(N=C(NCCc1c[nH]cn1)Nc1ccc(-c2ccc(Cl)cc2)cc1)c1cccc(Cl)c1` [III-29, (Z/E)-N-((2-(1H-imidazol-4-yl)ethylamino)(4′-chlorobiphenyl-4-ylamino)methylene)-3-chlorobenzamide] returned an EC50 in the assay on Ramos cells (Ramos cells) below 10 µM. For the same molecule, the “ATP Synthesis (IC40 μM)” value on F1F0-ATPase [1] was above 10 µM. Besides, the “ATP Hydrolysis (IC40 μM)” value at F1F0-ATPase [2] is above 10 µM.

Consider `O=C(N=C(NCCc1c[nH]cn1)Nc1ccc(-c2ccccc2)cc1)c1ccc([N+](=O)[O-])cc1` [II-13, (Z/E)-N-((2-(1H-imidazol-4-yl)ethylamino)(biphenyl-4-ylamino)methylene)-4-nitrobenzamide], for which, in the assay with Ramos cells (Ramos cells), the EC50 was above 30 µM. Moreover, the “ATP Synthesis (IC40 μM)” value at F1F0-ATPase [1] is above 20 µM. For the same molecule, the “ATP Hydrolysis (IC40 μM)” value at F1F0-ATPase [2] is above 30 µM.

In the case of `O=C(N=C(NCCc1c[nH]cn1)Nc1ccccc1C(F)(F)F)c1cccc(Cl)c1` [III-23, (Z/E)-N-((2-(1H-imidazol-4-yl)ethylamino)(2-(trifluoromethyl)phenylamino)methylene)-3-chlorobenzamide], the EC50 in the assay on Ramos cells (Ramos cells) is above 20 µM. For the same molecule, the “ATP Synthesis (IC40 μM)” value on F1F0-ATPase [1] was above 20 µM. Further, at F1F0-ATPase [2], the “ATP Hydrolysis (IC40 μM)” value is above 20 µM.

Regarding `Cc1cccc(C(=O)N=C(NCCc2c[nH]cn2)Nc2ccccc2-c2ccccc2)c1` [Compound I-4, (E/Z)—N-((2-(1H-imidazol-4-yl)ethylamino)(biphenyl-2-ylamino)methylene)-3-methylbenzamide], in the assay with Ramos cells (Ramos cells), the EC50 was above 20 µM. For the same molecule, the “ATP Synthesis (IC40 μM)” value on F1F0-ATPase [1] is above 10 µM. On F1F0-ATPase [2], the “ATP Hydrolysis (IC40 μM)” value was above 20 µM.

On to `Cc1ccc(NC(=NC(=O)c2cccc(Cl)c2)NCCc2c[nH]cn2)cc1` [III-10, (Z/E)-N-((2-(1H-imidazol-4-yl)ethylamino)(p-toluidino)methylene)-3-chlorobenzamide], for which, in the assay on Ramos cells (Ramos cells), the EC50 is above 10 µM. For the same molecule, the “ATP Synthesis (IC40 μM)” value on F1F0-ATPase [1] is above 10 µM. Further, the “ATP Hydrolysis (IC40 μM)” value at F1F0-ATPase [2] was above 20 µM.

In the assay with Ramos cells (Ramos cells), `O=C(N=C(NCCc1c[nH]cn1)Nc1cccc(-c2ccccc2)c1)c1ccc(Cl)c(Cl)c1` [VI-9, (Z/E)-N-((2-(1H-imidazol-4-yl)ethylamino)(biphenyl-3-ylamino)methylene)-3,4-dichlorobenzamide] registered an EC50 below 10 µM. The “ATP Synthesis (IC40 μM)” value at F1F0-ATPase [1] is below 10 µM. The “ATP Hydrolysis (IC40 μM)” value at F1F0-ATPase [2] was below 10 µM.

Molecule `O=C(N=C(NCCc1c[nH]cn1)Nc1cccc(-c2ccccc2)c1)c1ccc(C(F)(F)F)cc1` [VI-4, (Z/E)-N-((2-(1H-imidazol-4-yl)ethylamino)(biphenyl-3-ylamino)methylene)-4-(trifluoromethyl)benzamide] came in with an EC50 in the assay on Ramos cells (Ramos cells) above 10 µM. The “ATP Synthesis (IC40 μM)” value on F1F0-ATPase [1] was below 10 µM. On F1F0-ATPase [2], the “ATP Hydrolysis (IC40 μM)” value is above 10 µM.

In the assay with Ramos cells (Ramos cells), `O=C(N=C(NCCc1c[nH]cn1)Nc1ccc(Br)cc1)c1cccc(Cl)c1` [III-20, (Z/E)-N-((2-(1H-imidazol-4-yl)ethylamino)(4-bromophenylamino)methylene)-3-chlorobenzamide] gave an EC50 above 10 µM. Also, the “ATP Synthesis (IC40 μM)” value at F1F0-ATPase [1] was above 10 µM. At F1F0-ATPase [2], the “ATP Hydrolysis (IC40 μM)” value was above 10 µM.

Molecule `N#Cc1ccc(C(=O)N=C(NCCc2c[nH]cn2)Nc2cccc(-c3ccccc3)c2)cc1` [VI-6, (Z/E)-N-((2-(1H-imidazol-4-yl)ethylamino)(biphenyl-3-ylamino)methylene)-4-cyanobenzamide] came in with an EC50 in the assay with Ramos cells (Ramos cells) above 10 µM. Also, the “ATP Synthesis (IC40 μM)” value at F1F0-ATPase [1] is below 10 µM. For the same molecule, the “ATP Hydrolysis (IC40 μM)” value at F1F0-ATPase [2] was above 30 µM.

Molecule `Cc1ccc(C(=O)N=C(NCCc2c[nH]cn2)Nc2ccccc2-c2ccccc2)cc1` [Compound I-5, (E/Z)—N-((2-(1H-imidazol-4-yl)ethylamino)(biphenyl-2-ylamino)methylene)-4-methylbenzamide] yielded an EC50 with Ramos cells (Ramos cells) above 20 µM. Also, on F1F0-ATPase [1], the “ATP Synthesis (IC40 μM)” value is above 10 µM. Further, the “ATP Hydrolysis (IC40 μM)” value on F1F0-ATPase [2] is above 10 µM.

In turn, `O=C(N=C(NCCc1c[nH]cn1)Nc1ccc(Cl)cc1)c1cccc(Cl)c1` [III-19, (Z/E)-N-((2-(1H-imidazol-4-yl)ethylamino)(4-chlorophenylamino)methylene)-3-chlorobenzamide] had an EC50 with Ramos cells (Ramos cells) above 10 µM. Also, the “ATP Synthesis (IC40 μM)” value on F1F0-ATPase [1] is above 10 µM. Moreover, the “ATP Hydrolysis (IC40 μM)” value at F1F0-ATPase [2] is above 30 µM.

`O=C(/N=C(/NCCN1CCNC1=O)Nc1ccc(-c2ccccc2)cc1)c1cccc(Cl)c1` [IV-7, (Z/E)-N-((biphenyl-4-ylamino)(2-(2-oxoimidazolidin-1-yl)ethylamino)methylene)-3-chlorobenzamide] had an EC50 in the assay with Ramos cells (Homo sapiens, Ramos) above 30 µM. Also, at F1F0-ATPase [1], the “ATP Synthesis (IC40 μM)” value is above 20 µM. At F1F0-ATPase [2], the “ATP Hydrolysis (IC40 μM)” value is above 30 µM.

Take `O=C(N=C(NCCc1c[nH]cn1)Nc1ccc(-c2ccccc2)cc1)c1cccc(Cl)c1` [III-7, (Z/E)-N-((2-(1H-imidazol-4-yl)ethylamino)(biphenyl-4-ylamino)methylene)-3-chlorobenzamide]: the EC50 with Ramos cells (Ramos cells) was below 10 µM. Further, the “ATP Synthesis (IC40 μM)” value at F1F0-ATPase [1] is below 10 µM. On F1F0-ATPase [2], the “ATP Hydrolysis (IC40 μM)” value was above 10 µM.

With `CCc1cccc(CC)c1NC(=NC(=O)c1cccc(Cl)c1)NCCc1c[nH]cn1` [III-44, (Z/E)-N-((2-(1H-imidazol-4-yl)ethylamino)(2,6-diethylphenylamino)methylene)-3-chlorobenzamide], in the assay with Ramos cells (Ramos cells, multiple of Bz-423), the “Ramos cell death (relative to Bz-423)” value turned out to be 2.5 ×Bz-423. On F1F0-ATPase [1] (ATP synthesis, multiple of Bz-423), the “syn (relative to Bz-423)” value turned out to be 0.7 ×Bz-423. Besides, the “hydro (relative to Bz-423)” value at F1F0-ATPase [2] (ATP hydrolysis, multiple of Bz-423) came out at 0.8 ×Bz-423.

`O=C(N=C(NCCc1c[nH]cn1)Nc1ccc(F)cc1)c1cccc(Cl)c1` [III-16, (Z/E)-N-((2-(1H-imidazol-4-yl)ethylamino)(4-fluorophenylamino)methylene)-3-chlorobenzamide]: the EC50 in the assay with Ramos cells (Ramos cells) is above 30 µM. Further, on F1F0-ATPase [1], the “ATP Synthesis (IC40 μM)” value is above 20 µM. On F1F0-ATPase [2], the “ATP Hydrolysis (IC40 μM)” value is above 30 µM.

What is called EC50 is the midpoint of the concentration-response curve.
